The structures appear in SMILES notation.

Assay [1] has as its target Serine/threonine-protein kinase Chk2 (Homo sapiens, UniProt O96017).
The target of assay [2] is Calcium/calmodulin-dependent protein kinase type II subunit alpha (Homo sapiens) (UniProt Q9UQM7).
Assay [3] concerns the target T1, Serine/threonine-protein kinase 17A (Homo sapiens) (UniProt Q9UEE5).
T1 sequence (whole entry): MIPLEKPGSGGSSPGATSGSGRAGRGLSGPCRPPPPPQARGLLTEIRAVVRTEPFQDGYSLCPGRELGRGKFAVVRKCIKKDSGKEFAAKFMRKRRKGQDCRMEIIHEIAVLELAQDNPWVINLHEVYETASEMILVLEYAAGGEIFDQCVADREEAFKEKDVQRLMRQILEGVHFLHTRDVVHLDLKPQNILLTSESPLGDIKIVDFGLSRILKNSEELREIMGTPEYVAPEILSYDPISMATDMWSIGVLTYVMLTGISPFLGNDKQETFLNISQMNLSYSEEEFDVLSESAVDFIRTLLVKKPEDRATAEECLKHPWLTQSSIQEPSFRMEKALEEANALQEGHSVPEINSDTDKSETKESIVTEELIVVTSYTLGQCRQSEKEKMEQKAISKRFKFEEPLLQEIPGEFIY

Assay [4] deals with Cyclin-dependent kinase 6 (Homo sapiens) (UniProt Q00534).
Assay [5] addresses Calcium/calmodulin-dependent protein kinase type 1G (Homo sapiens) (UniProt Q96NX5).
The target of assay [6] is Mitogen-activated protein kinase 3 (Homo sapiens, UniProt P27361).
Assay [7] deals with Serine/threonine-protein kinase 26 (Homo sapiens) (UniProt Q9P289).
Assay [8] concerns the target Calcium/calmodulin-dependent protein kinase type II subunit beta (Homo sapiens) (UniProt Q13554).
Assay [9] deals with Serine/threonine-protein kinase VRK2 (Homo sapiens) (UniProt Q86Y07).
For assay [10], the target named is Serine/threonine-protein kinase PAK 5 (Homo sapiens) (UniProt Q9P286).
In assay [11] the target is Serine/threonine-protein kinase 10 (Homo sapiens) (UniProt O94804).
In assay [12] the target is Serine/threonine-protein kinase Nek6 (Homo sapiens) (UniProt Q9HC98).
Assay [13] deals with Serine/threonine-protein kinase pim-2 (Homo sapiens, UniProt Q9P1W9).
The target of assay [14] is Calcium/calmodulin-dependent protein kinase type II subunit delta (Homo sapiens) (UniProt Q13557).
Assay [15] deals with Serine/threonine-protein kinase 26 (Homo sapiens) (UniProt Q9P289). The source holds these as a separate data set.
Assay [16] deals with Tyrosine-protein kinase JAK1 (Homo sapiens) (UniProt P23458).
For assay [17], the target named is T2, Mitogen-activated protein kinase kinase kinase 5 (Homo sapiens) (UniProt Q99683).
T2 sequence (whole entry): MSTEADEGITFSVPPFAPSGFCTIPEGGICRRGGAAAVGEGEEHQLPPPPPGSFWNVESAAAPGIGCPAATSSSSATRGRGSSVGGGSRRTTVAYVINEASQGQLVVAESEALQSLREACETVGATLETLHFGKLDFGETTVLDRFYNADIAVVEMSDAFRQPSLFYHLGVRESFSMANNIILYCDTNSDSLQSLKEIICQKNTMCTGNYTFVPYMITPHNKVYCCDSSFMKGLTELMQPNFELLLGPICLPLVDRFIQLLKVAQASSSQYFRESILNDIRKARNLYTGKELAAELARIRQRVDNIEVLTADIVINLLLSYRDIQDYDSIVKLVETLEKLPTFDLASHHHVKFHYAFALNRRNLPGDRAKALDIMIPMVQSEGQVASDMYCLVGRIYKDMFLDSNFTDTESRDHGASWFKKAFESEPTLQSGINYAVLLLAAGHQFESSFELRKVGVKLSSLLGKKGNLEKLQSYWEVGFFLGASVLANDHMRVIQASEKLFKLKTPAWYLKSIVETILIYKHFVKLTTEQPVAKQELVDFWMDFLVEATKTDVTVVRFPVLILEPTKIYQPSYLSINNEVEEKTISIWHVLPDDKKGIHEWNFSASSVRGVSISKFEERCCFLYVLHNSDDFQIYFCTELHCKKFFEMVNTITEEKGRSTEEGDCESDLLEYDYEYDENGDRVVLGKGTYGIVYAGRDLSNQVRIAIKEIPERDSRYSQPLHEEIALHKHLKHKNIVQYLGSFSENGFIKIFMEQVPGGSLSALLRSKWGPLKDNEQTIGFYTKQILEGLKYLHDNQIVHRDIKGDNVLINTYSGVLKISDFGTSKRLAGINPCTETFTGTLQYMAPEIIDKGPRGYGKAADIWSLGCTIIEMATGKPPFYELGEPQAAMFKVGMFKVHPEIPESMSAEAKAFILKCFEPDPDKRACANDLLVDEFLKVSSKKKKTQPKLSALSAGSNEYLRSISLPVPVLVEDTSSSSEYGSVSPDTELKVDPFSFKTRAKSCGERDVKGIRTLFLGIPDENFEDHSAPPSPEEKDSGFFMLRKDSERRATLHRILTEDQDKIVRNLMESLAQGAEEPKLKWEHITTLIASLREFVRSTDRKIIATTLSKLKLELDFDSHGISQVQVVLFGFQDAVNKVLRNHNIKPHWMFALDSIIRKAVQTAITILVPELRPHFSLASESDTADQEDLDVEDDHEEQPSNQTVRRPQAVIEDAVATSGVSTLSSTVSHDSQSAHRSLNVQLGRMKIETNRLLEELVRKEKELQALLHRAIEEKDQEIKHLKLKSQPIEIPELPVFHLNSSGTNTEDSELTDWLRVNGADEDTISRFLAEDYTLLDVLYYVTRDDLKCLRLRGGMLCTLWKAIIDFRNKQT

The target of assay [18] is TRAF2 and NCK-interacting protein kinase (Homo sapiens) (UniProt Q9UKE5).
Assay [19] deals with Glycogen synthase kinase-3 beta (Homo sapiens, UniProt P49841).
Assay [20] concerns the target Serine/threonine-protein kinase PLK1 (Homo sapiens) (UniProt P53350).
Assay [21] concerns the target Serine/threonine-protein kinase 16 (Homo sapiens) (UniProt O75716).

Sequence of Serine/threonine-protein kinase pim-2 (Q9P1W9 whole entry, looked up): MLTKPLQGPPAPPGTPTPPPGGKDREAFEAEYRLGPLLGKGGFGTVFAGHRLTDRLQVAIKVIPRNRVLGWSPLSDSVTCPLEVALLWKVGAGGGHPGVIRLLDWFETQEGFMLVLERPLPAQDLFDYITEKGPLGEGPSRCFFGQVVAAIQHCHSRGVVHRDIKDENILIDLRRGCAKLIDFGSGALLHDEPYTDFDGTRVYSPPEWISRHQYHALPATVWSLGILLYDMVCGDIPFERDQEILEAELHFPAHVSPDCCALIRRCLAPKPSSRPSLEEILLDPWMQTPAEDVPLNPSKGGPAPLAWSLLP
Sequence of Serine/threonine-protein kinase 10 (Homo sapiens) (O94804 whole entry, looked up): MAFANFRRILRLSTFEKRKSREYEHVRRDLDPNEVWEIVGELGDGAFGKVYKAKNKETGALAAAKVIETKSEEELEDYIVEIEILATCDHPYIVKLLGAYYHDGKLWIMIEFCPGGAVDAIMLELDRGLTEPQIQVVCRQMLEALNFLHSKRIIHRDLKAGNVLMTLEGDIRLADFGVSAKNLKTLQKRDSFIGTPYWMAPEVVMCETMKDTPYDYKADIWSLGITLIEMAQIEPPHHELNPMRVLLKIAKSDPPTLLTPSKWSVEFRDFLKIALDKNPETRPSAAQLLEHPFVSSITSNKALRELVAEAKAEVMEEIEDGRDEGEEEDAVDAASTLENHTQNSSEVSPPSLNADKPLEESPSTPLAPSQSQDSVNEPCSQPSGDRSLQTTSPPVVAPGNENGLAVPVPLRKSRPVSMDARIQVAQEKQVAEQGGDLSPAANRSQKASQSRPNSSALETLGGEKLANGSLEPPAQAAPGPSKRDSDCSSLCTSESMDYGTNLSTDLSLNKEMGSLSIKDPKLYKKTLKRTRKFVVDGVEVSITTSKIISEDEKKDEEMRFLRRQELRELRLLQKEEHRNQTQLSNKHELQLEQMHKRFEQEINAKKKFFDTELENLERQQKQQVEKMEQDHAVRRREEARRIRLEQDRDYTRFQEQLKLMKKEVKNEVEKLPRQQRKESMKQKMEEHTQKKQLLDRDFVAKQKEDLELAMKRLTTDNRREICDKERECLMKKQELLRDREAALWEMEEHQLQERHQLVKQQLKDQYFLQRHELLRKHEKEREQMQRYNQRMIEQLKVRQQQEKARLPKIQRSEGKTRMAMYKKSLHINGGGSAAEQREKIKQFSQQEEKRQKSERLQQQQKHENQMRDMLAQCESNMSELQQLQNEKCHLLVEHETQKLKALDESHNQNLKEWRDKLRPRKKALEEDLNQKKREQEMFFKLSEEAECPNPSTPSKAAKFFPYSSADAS
Sequence of Serine/threonine-protein kinase Chk2 (O96017 whole entry): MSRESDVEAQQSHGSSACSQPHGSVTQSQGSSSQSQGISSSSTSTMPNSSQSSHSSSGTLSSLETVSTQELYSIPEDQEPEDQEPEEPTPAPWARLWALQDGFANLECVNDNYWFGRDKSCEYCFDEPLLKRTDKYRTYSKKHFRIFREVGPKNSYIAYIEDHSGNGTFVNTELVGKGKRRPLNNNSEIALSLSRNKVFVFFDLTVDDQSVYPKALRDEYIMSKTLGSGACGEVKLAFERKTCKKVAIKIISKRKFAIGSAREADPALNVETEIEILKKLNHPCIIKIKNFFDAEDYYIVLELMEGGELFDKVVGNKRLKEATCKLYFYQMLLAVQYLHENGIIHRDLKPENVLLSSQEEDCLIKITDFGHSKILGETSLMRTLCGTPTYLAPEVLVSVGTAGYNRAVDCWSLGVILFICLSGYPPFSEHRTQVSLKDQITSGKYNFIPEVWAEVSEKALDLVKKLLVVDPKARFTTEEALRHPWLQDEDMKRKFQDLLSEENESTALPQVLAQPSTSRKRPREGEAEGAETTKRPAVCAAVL
Sequence of Glycogen synthase kinase-3 beta (P49841 whole entry, looked up): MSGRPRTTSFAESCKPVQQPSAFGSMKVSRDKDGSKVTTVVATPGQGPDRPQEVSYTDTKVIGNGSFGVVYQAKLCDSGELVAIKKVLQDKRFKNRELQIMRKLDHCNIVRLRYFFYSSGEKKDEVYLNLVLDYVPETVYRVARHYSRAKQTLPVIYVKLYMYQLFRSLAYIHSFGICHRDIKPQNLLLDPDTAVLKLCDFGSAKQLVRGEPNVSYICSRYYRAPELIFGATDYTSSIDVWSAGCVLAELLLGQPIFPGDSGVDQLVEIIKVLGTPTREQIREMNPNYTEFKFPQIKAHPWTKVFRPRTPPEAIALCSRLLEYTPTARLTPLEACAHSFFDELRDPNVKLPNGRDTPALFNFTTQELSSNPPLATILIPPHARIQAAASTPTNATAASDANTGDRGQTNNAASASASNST
Sequence of Calcium/calmodulin-dependent protein kinase type II subunit alpha (Homo sapiens) (Q9UQM7 whole entry): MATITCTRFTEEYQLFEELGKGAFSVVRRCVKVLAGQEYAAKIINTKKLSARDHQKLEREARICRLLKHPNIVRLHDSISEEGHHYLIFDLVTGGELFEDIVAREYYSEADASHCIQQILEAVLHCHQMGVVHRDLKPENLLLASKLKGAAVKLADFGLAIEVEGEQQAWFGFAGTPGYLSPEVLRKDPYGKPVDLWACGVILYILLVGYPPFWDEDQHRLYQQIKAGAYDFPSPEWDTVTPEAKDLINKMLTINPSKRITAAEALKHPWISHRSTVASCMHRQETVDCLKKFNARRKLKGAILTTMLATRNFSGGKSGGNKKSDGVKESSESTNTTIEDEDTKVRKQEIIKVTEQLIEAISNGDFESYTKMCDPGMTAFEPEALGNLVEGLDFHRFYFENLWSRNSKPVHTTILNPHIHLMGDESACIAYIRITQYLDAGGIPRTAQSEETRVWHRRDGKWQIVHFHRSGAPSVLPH
Sequence of TRAF2 and NCK-interacting protein kinase (Homo sapiens) (Q9UKE5 whole entry, looked up): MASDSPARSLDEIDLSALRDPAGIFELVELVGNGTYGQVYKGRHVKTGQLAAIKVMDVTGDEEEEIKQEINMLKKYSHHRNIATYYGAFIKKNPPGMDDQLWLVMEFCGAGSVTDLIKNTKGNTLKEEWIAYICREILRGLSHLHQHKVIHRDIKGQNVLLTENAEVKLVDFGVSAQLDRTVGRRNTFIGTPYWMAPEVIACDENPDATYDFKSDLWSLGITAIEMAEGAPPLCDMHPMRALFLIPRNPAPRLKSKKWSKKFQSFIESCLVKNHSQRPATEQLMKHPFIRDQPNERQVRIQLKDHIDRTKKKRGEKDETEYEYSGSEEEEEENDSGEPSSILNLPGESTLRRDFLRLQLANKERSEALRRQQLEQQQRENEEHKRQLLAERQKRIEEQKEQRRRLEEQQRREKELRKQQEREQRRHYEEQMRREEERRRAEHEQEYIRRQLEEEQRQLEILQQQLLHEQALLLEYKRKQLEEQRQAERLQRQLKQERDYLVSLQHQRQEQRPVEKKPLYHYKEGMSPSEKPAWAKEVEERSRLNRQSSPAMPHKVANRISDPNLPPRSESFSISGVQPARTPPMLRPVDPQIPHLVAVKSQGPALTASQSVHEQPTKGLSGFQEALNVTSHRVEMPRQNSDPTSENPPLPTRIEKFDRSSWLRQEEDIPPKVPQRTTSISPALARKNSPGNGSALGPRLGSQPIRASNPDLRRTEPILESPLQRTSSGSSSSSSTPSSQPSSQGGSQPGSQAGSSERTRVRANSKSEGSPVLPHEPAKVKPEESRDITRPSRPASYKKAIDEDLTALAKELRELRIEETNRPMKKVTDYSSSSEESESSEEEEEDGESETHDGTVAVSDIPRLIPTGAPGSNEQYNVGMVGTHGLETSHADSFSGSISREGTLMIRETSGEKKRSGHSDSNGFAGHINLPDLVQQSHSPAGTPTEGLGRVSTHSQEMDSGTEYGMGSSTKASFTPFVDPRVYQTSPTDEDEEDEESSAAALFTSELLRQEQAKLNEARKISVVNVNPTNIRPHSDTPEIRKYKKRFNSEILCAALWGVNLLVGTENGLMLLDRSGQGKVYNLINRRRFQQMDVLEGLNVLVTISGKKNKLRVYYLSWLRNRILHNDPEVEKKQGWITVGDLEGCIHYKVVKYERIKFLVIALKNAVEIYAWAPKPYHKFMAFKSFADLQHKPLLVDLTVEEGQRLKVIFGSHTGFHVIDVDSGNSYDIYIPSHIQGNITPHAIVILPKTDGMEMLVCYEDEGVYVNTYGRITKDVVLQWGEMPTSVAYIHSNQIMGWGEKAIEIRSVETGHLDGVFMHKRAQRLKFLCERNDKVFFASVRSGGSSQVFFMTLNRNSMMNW
Sequence of Serine/threonine-protein kinase PLK1 (Homo sapiens) (P53350 whole entry): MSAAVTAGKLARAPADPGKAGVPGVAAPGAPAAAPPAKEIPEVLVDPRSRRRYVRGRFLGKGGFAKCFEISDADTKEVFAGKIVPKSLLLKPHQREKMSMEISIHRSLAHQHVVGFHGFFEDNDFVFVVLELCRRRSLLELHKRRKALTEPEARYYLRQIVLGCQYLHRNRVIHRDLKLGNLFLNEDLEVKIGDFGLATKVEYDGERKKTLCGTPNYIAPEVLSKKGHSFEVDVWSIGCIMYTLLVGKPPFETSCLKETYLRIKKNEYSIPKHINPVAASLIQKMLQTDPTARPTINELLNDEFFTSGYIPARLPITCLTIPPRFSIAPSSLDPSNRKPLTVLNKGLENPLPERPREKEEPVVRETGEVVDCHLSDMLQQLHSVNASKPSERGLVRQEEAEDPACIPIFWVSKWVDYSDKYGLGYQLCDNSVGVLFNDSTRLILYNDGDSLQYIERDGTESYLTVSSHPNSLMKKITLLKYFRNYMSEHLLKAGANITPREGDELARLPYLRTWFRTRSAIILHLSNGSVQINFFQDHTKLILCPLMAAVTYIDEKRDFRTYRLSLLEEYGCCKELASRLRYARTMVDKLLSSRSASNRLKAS
Sequence of Cyclin-dependent kinase 6 (Homo sapiens) (Q00534 whole entry): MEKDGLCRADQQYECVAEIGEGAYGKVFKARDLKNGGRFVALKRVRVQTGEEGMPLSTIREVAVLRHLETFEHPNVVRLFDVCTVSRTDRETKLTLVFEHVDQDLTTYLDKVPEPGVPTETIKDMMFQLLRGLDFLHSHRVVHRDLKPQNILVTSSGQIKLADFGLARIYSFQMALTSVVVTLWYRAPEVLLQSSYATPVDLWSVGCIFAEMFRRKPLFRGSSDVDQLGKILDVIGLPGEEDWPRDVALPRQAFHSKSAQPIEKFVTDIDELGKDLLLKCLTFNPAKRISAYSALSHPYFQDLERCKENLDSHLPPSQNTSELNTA

With `COC1=C2C[C@@H](C)C[C@H](OC)[C@H](O)[C@@H](C)/C=C(\C)[C@H](OC(N)=O)[C@@H](OC)/C=C\C=C(/C)C(=O)NC(=CC1=O)C2=O`, the ΔTm is 0.2 °C in assay [1]; -0.1 °C in assay [2]; 0.3 °C in assay [3]; 0.1 °C in [4]; 0.2 °C in [5]; 0.1 °C in assay [6]. In addition, the ΔTm in [7] is -0.4 °C; in [8], -0.1 °C; in [9], 0.2 °C; in assay [10], 0 °C; in assay [11] it was 0.5 °C; in [12], -0.2 °C. Moreover, the ΔTm in [13] was -0.1 °C; in assay [14], -0.5 °C; in [15], -0.3 °C; in [16], -0.5 °C; in assay [17], -0.5 °C; in assay [18], -0.4 °C. The ΔTm was 0.5 °C in [19], 0.1 °C in [20] and 0.4 °C in assay [21].
As to `CC(C)N(CCO)c1nc(Nc2cccc(Cl)c2)c2ncn(C(C)C)c2n1`, the ΔTm in assay [1] is 0.6 °C; in [2], 0.5 °C; in assay [3] it was -0.1 °C; in assay [4], 0.2 °C; in assay [5], -0.1 °C; in [6] it was 1.7 °C. For the same compound, the ΔTm was 2.8 °C in assay [7]; 0.4 °C in assay [8]; 2.7 °C in assay [9]; 3 °C in assay [10]; 3.3 °C in [11]; -0.2 °C in assay [12]. For the same compound, the ΔTm was determined as 0.2 °C in [13]; 0.2 °C in [14]; 0.7 °C in [15]; 2.2 °C in [16]; 0.4 °C in assay [17]; 3.6 °C in [18]. The ΔTm in assay [19] was determined as 2.4 °C; in [20], 3.3 °C; in assay [21] it was 3.1 °C.
For `CC(C)n1cnc2c(NCc3ccccc3O)nc(NCCCO)nc21`, the ΔTm was -0.4 °C in assay [1]; 0 °C in assay [2]; 0 °C in assay [3]; 0 °C in assay [4]; 0.1 °C in assay [5]; 0.4 °C in [6]. Besides, the ΔTm turned out to be 0.4 °C in [7]; 0.3 °C in assay [8]; 0.6 °C in [9]; 0.2 °C in assay [10]; 0.5 °C in assay [11]; 0 °C in assay [12]. The ΔTm in assay [13] was 0.1 °C; in [14], -0.1 °C; in [15], 0.3 °C; in [16], 0.8 °C; in assay [17] it was 1 °C; in assay [18], 0 °C. In addition, the values for the ΔTm in [19], in assay [20] and in [21] were 0.3 °C, 0.5 °C and 1.2 °C, respectively.
Regarding `O=c1cc(N2CCOCC2)oc2c(-c3ccccc3)cccc12`, the ΔTm in [1] is -0.4 °C; in assay [2] it was 0.5 °C; in [3], 1 °C; in assay [4], 0.5 °C; in assay [5] it was 0.4 °C; in assay [6] it was -0.6 °C. Further, the ΔTm in assay [7] was -0.3 °C; in assay [8], 0.5 °C; in assay [9], 0.6 °C; in assay [10] it was 0.5 °C; in assay [11], 0.8 °C; in [12], -0.5 °C. For the same compound, the ΔTm in assay [13] is 1.3 °C; in assay [14], 0.4 °C; in assay [15], 0.2 °C; in assay [16] it was 0.6 °C; in assay [17] it was 0.3 °C; in assay [18], -0.2 °C. Further, the ΔTm in assay [19] stood at 1.1 °C; in assay [20], 4.7 °C; in assay [21], 0.4 °C.
On to `N#C/C(=C\c1ccc(O)c(O)c1)C(=O)Nc1ccccc1`, for which the shift in melting temperature (ΔTm) in assay [1] was 0.1 °C; in assay [2] it was 0.3 °C; in [3] it was 2.8 °C; in assay [4], 0.4 °C; in assay [5], 0.4 °C; in [6] it was 0.5 °C. For the same compound, the ΔTm is 0.3 °C in assay [7]; 0.2 °C in [8]; 0.3 °C in assay [9]; 0.4 °C in assay [10]; 1.2 °C in assay [11]; 0.9 °C in assay [12]. Also, the ΔTm in [13] was 1.5 °C; in [14], 1 °C; in assay [15] it was 0.4 °C; in assay [16], 0.8 °C; in [17], -0.2 °C; in assay [18], 1 °C. Further, the ΔTm in [19] came to 0.7 °C; in [20], 0.7 °C; in [21], 0.1 °C.
For the compound `Cc1ccc(NC(=O)c2ccc(CN3CCN(C)CC3)cc2)cc1Nc1nccc(-c2cccnc2)n1`, the ΔTm in assay [1] is -1.1 °C; in assay [2], 0.2 °C; in [3], 1.3 °C; in assay [4], 0.2 °C; in [5] it was 0.1 °C; in assay [6], 0.6 °C. Further, the ΔTm in assay [7] was 1 °C; in assay [8], 0.1 °C; in assay [9] it was 0.5 °C; in [10] it was -0.6 °C; in assay [11], 0.8 °C; in [12], 0.4 °C. For the same compound, the ΔTm in assay [13] was 0.6 °C; in assay [14] it was 0.3 °C; in [15], -0.3 °C; in assay [16], 0.1 °C; in assay [17], 0 °C; in [18], 0 °C. Also, the ΔTm in assay [20] was 1.6 °C; in assay [21], 2.9 °C.

Values taken from ChEMBL document CHEMBL1145498, “A systematic interaction map of validated kinase inhibitors with Ser/Thr kinases” (Proc Natl Acad Sci U S A, 2007).
